These results are taken from patent US9983218B2, “Indole and indoline derivatives and methods of use thereof” (AbbVie Inc., priority 2008, dated 2018).

SMILES strings stand for the structures. pEC50: −log10 of the molar value. Where two headings read alike, the source gives them in different places.

Usually pEC50 stands for the negative decadic logarithm of the EC50, by convention in mol/L.

Assay [1] has as its system primary postnatal (P0) cortical cells. Description: Neurite outgrowth assay (Aβ1-42-induced reduction of neurite outgrowth, high content microscopy). The assay is classed as cell-based, rat. The conditions noted are these: for Emax: Rattus norvegicus, read-out: Maximum Effect (of % 300 nM Dimebolin). The procedure:
In addition to PC12 cells, other cellular model systems may also be used. Rat cortical cells were cultured and prepared for high content microscopy analysis as previously described (Hu, M.; Schurdak, M. E.; et al. High content screen microscopy analysis of Aβ1-42-induced neurite outgrowth reduction in rat primary cortical neurons: Neuroprotective effects of α7 neuronal nicotinic acetylcholine receptor ligands. Brain Res. 2007, 1151, 227-235.). Briefly, cortical cell cultures were plated at density of 5×10^5 cells/mL onto poly-D-lysine coated 96-well plates and maintained in a cell incubator at 37° C. with 5% CO2. Experiments were performed using 6-7 day-old cortical cell cultures by treating with test compounds. In some experiments, the effect of test compounds on reversing Aβ toxicity were also measured (Hu, M.; Schurdak, M. E.; et al. High content screen microscopy analysis of Aβ1-42-induced neurite outgrowth reduction in rat primary cortical neurons: Neuroprotective effects of α7 neuronal nicotinic acetylcholine receptor ligands. Brain Res. 2007, 1151, 227-235.). For assessment of neuroprotective effects, cells were first pretreated with test compounds for about 5 hours. Medium was then replaced with the medium containing freshly prepared about 5 μM Aβ1-42 peptide in the absence or presence of the test compounds for 3 days. The untreated group contained the same percentage of vehicle (DMSO) as in the treatment groups. Cells were fixed with approximately 4% paraformaldehyde containing 0.5% Hoechst 33342 for about 15 minutes, followed by three washes using PBS (pH 7.4) and blocked with 10% donkey serum in PBS for 1 hour at room temperature. The cells were then incubated overnight at about 4° C. with mouse anti-tubulin monoclonal antibody (1:100) for staining neurons and rabbit anti-GFAP (1:1000) for staining glia. In the next day, cells were incubated with FITC-labeled anti-mouse and TRITC-labeled anti-rabbit antibodies (1:1000) for about 1 hour at room temperature. After fixing and staining the cells, nuclei (360/400 nm excitation and 465/300 nm emission filters), neuron (475/350 nm excitation and 535/400 nm emission filters) and glial cell (535 nm excitation and 610 nm emission filters) images were collected using the ImageExpress Micro automatic fluorescent microscopy system (Molecular Devices, Sunnyvale, Calif.) employing a Nikon 10× Plan Fluor objective and Cool Snap HQ CCD camera. The Neurite Outgrowth module in the MetaMorph Imaging software was used to automatically count total cell number, number of neuron cells, and the extent of neurite outgrowth.
In the graph of FIG. 2, 100% response was the response observed for untreated cells. Exposure to Aβ1-42 produced a decrease in neurite outgrowth. Treatment of cells with compounds prior to and concomitantly with Aβ1-42 gave a neuroprotective effect with neurite outgrowth maintained or enhanced relative to untreated cells.

For assay [2], the system named is SK-N-SH human neuroblastoma cells. Nature of the assay: Serum deprivation/JC-1 mitochondrial membrane potential (MMP) assay. The assay is classed as cell-based. To be noted: for Emax: SK-N-SH, read-out: JC-1 max %; for pEC50: SK-N-SH cells, serum deprivation ~18 hours, JC-1 ratio normalized to peak value for 10 μM dimebolin, single curve fit to mean data of n=2-3, read-out: EC50. The method in brief:
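Cells were serum-deprived ~18 h in MEM with or without compound (DMSO ≤1%), then stained with JC-1 for 35 min at 37° C. The red/green fluorescence ratio (560/595 vs 485/535 nm) was normalized to the peak response of 10 μM dimebolin. EC50 came from one curve fit to mean data (n=2-3, duplicates).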

Setting [3] is: maximum response relative to 300 nM dimebolin, at the concentration given.
[4] abbreviates: Homo sapiens, percent maximal intensity in JC-1 ratio normalized to 10 μM dimebolin.

Consider `Fc1ccc2c(c1)c1c(n2Cc2ccc(Br)cc2)C2CCN(CC2)C1` [Example 167, 6-(4-bromobenzyl)-9-fluoro-3,4,5,6-tetrahydro-1H-2,5-ethanoazepino[4,3-b]indole], for which the figures for the Emax in assay [1] (setting [3]) and in assay [2] (setting [4]) were 92% and 149%, respectively. Besides, the pEC50 in assay [2] (Homo sapiens) is 5.33.

For `c1ccc2c(c1)c1c(n2-c2ccc3ccncc3c2)C[C@@H]2CC[C@H]1N2` (single isomer, unassigned) [Example 280], the Emax in assay [1] (setting [3]) came to 107%; in assay [2] (setting [4]), 201%. Also, the pEC50 in assay [2] (Homo sapiens) was 5.28.

With `O=c1cnc2ccc(-n3c4c(c5ccccc53)CN3CCC4CC3)cc2[nH]1` [Example 274, 7-(1,3,4,5-tetrahydro-6H-2,5-ethanoazepino[4,3-b]indol-6-yl)quinoxalin-2(1H)-one], the values for the Emax in assay [1] (setting [3]) and in assay [2] (setting [4]) were 111% and 235%, respectively. Further, the pEC50 in assay [2] (Homo sapiens) is 5.64.

Take `O=c1ccnc2ccc(-n3c4c(c5ccccc53)CN3CCC4CC3)cn12` [Example 277, 7-(1,3,4,5-tetrahydro-6H-2,5-ethanoazepino[4,3-b]indol-6-yl)-4H-pyrido[1,2-a]pyrimidin-4-one]: the figures for the Emax in assay [1] (setting [3]) and in assay [2] (setting [4]) were 91% and 190%, respectively. The pEC50 in assay [2] (Homo sapiens) is 5.62.

As for `O=c1cccnn1-c1ccc(-n2c3c(c4cc(F)ccc42)CN2CCC3CC2)nc1` [Example 262, 2-[6-(9-fluoro-1,3,4,5-tetrahydro-6H-2,5-ethanoazepino[4,3-b]indol-6-yl)pyridin-3-yl]pyridazin-3(2H)-one], the results for the Emax in assay [1] (setting [3]) and in assay [2] (setting [4]) were 99% and 182%, respectively. For the same compound, in assay [2] (Homo sapiens), the pEC50 was 5.06.

For the compound `Cc1ccc2c(c1)c1c(n2CCc2cnc(C)nc2)C[C@H]2CC[C@@H]1N2C` [Example 31, (7R,10S)-2,11-dimethyl-5-[2-(2-methylpyrimidin-5-yl)ethyl]-5,6,7,8,9,10-hexahydro-7,10-epiminocyclohepta[b]indole], the Emax in assay [1] (setting [3]) came out at 96%; in assay [2] (setting [4]), 97%. In assay [2] (Homo sapiens), the pEC50 was 5.22.

Take `c1ccc2c(c1)c1c(n2-c2ccc3ccncc3c2)C[C@H]2CC[C@@H]1N2` (single isomer, unassigned) [Example 279]: the Emax in assay [1] (setting [3]) turned out to be 108%; in assay [2] (setting [4]), 209%. The negative logarithm of the EC50 (pEC50) in assay [2] (Homo sapiens) was 5.26.

Take `Cc1ccc2c(c1)c1c(n2CCc2ccc(C)nc2)C[C@H]2CC[C@@H]1N2` (single isomer, unassigned) [Example 6]: the Emax worked out at 124% in assay [1] (setting [3]) and 163% in assay [2] (setting [4]). In addition, the pEC50 in assay [2] (Homo sapiens) is 5.24.

`c1cnc2ccc(-n3c4c(c5ccccc53)[C@@H]3CC[C@H](C4)N3)cc2c1` [Example 282, (7R,10S)-5-(quinolin-6-yl)-5,6,7,8,9,1-hexahydro-7,10-epiminocyclohepta[b]indole]: the “Maximum Effect (of % 300 nM Dimebolin)” value in assay [1] (setting [3]) amounted to 115%. Besides, the “Concentration (nM) at which the maximum effect was noted” value in assay [1] (test compound concentration giving the maximum response) was found to be 30 nM. In addition, in assay [2], the pEC50 was 5.49. For the same compound, in assay [2] (percent maximal intensity in JC-1 ratio normalized to 10 μM dimebolin), the JC-1 max % was 228%.

Consider `Cc1ccc2c(c1)c1c(n2CCc2cccc(C(F)(F)F)c2)CC2CCC1N2C` (stereo not drawn) [Example 50, 2,11-dimethyl-5-{2-[3-(trifluoromethyl)phenyl]ethyl}-5,6,7,8,9,10-hexahydro-7,10-epiminocyclohepta[b]indole], for which the Emax in assay [1] (setting [3]) amounted to 101%; in assay [2] (setting [4]), 175%. Further, the pEC50 in assay [2] (Homo sapiens) is 5.19.

`c1cnc2ccc(-n3c4c(c5ccccc53)[C@H]3CC[C@@H](C4)N3)cc2c1` (single isomer, unassigned) [Example 278]: the Emax worked out at 96% in assay [1] (setting [3]) and 189% in assay [2] (setting [4]). Moreover, the pEC50 in assay [2] (Homo sapiens) was 5.57.

As to `Fc1ccc2c(c1)c1c(n2-c2ccc3ncccc3c2)C2CCN(CC2)C1` [Example 228, 9-fluoro-6-quinolin-6-yl-3,4,5,6-tetrahydro-1H-2,5-ethanoazepino[4,3-b]indole], the Emax in assay [1] (setting [3]) was 141%; in assay [2] (setting [4]), 263%. Moreover, the negative-log EC50 (pEC50) in assay [2] (Homo sapiens) was 5.76.

Regarding `Fc1ccc(Cn2c3c(c4cc(F)ccc42)CN2CCC3CC2)cc1` [Example 165, 9-fluoro-6-(4-fluorobenzyl)-3,4,5,6-tetrahydro-1H-2,5-ethanoazepino[4,3-b]indole], the Emax in assay [1] (setting [3]) came to 104%.

With `Fc1ccc2c(c1)c1c(n2-c2cccnc2)C2CCN(CC2)C1` [Example 264, 9-fluoro-6-(pyridin-3-yl)-3,4,5,6-tetrahydro-1H-2,5-ethanoazepino[4,3-b]indole], the values for the Emax in assay [1] (setting [3]) and in assay [2] (setting [4]) were 110% and 107%, respectively. In addition, the negative logarithm of the EC50 (pEC50) in assay [2] (Homo sapiens) was 5.11.

In the case of `O=c1ccnc2ccc(-n3c4c(c5cc(F)ccc53)CN3CCC4CC3)cn12` [Example 261, 7-(9-fluoro-1,3,4,5-tetrahydro-6H-2,5-ethanoazepino[4,3-b]indol-6-yl)-4H-pyrido[1,2-a]pyrimidin-4-one], the results for the Emax in assay [1] (setting [3]) and in assay [2] (setting [4]) were 104% and 160%, respectively. Also, in assay [2] (Homo sapiens), the negative-log EC50 (pEC50) is 5.24.

As for `Cc1ccc2c(c1)[C@H]1CN3CCC(CC3)[C@H]1N2CCc1ccc(C)nc1` (relative stereo) [Example 158, (5aR*,10bS*)-9-methyl-6-[2-(6-methylpyridin-3-yl)ethyl]-3,4,5,5a,6,10b-hexahydro-1H-2,5-ethanoazepino[4,3-b]indole], in assay [1] (setting [3]), the Emax was determined as 110%.

On to `O=c1cccnn1-c1ccc(Cn2c3c(c4cc(F)ccc42)CN2CCC3CC2)cn1` [Example 248, 2-{5-[(9-fluoro-1,3,4,5-tetrahydro-6H-2,5-ethanoazepino[4,3-b]indol-6-yl)methyl]pyridin-2-yl}pyridazin-3(2H)-one], for which the Emax turned out to be 109% in assay [1] (setting [3]) and 110% in assay [2] (setting [4]). The negative-log EC50 (pEC50) in assay [2] (Homo sapiens) is 5.28.

As to `Cc1ccc2cc(-n3c4c(c5cc(F)ccc53)CN3CCC4CC3)ccc2n1` [Example 229, 9-fluoro-6-(2-methylquinolin-6-yl)-3,4,5,6-tetrahydro-1H-2,5-ethanoazepino[4,3-b]indole], the Emax in assay [1] (setting [3]) came to 165%; in assay [2] (setting [4]), 282%. In assay [2] (Homo sapiens), the negative logarithm of the EC50 (pEC50) is 6.15.
